What was measured:
Assay in all cases: relative viability (nuclei count vs DMSO), 5 days (fraction); higher = more cells survive
[1] = compound: COC1=CC=C(C=C1)CN2C=CC3=C2C=C(C=C3)C(=O)NO + Cc1nc(NC(=O)N2CCC[C@H]2C(N)=O)sc1-c1ccnc(C(C)(C)C(F)(F)F)c1 [Alpelisib] (partner 2 µM)
Outline: (§1)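 Medians of duplicate plates are given as relative viability. That measure is the nuclei count in treated wells divided by the count in vehicle wells. Counts were taken on 4× images of lung cancer cell lines in 1536-well plates, 5 days after pin-tool dosing the day after seeding with one drug alone or a fixed anchor-drug dose plus five library-drug doses (not always all listed) in √10 steps.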

[2] = compound: COC1=CC=C(C=C1)CN2C=CC3=C2C=C(C=C3)C(=O)NO + O=C(c1cc(Cc2n[nH]c(=O)c3ccccc23)ccc1F)N1CCN(C(=O)C2CC2)CC1 [Olaparib] (partner 8 µM)
Outline: as §1

[3] = compound: C[C@]1(c2nc3c(C(N)=O)cccc3[nH]2)CCCN1 [Veliparib] + CC(C)C[C@H](NC(=O)[C@H](Cc1ccccc1)NC(=O)c1cnccn1)B(O)O [Bortezomib] (partner 0.002 µM)
Outline: as §1

[4] = compound: C[C@]1(c2nc3c(C(N)=O)cccc3[nH]2)CCCN1 [Veliparib] + C[C@]1(O)C[C@@H](c2nc(-c3ccc4ccc(-c5ccccc5)nc4c3)c3c(N)nccn32)C1 [Linsitinib] (partner 1 µM)
Outline: as §1

Row | Cell Line | relative viability ([1]; first compound 0.08 µM) | relative viability ([1]; first compound 0.253 µM) | relative viability ([1]; first compound 0.8 µM) | relative viability ([1]; first compound 2.53 µM) | relative viability ([1]; first compound 8 µM) | relative viability ([2]; first compound 0.08 µM) | relative viability ([2]; first compound 0.253 µM) | relative viability ([2]; first compound 0.8 µM) | relative viability ([2]; first compound 2.53 µM) | relative viability ([2]; first compound 8 µM) | relative viability ([3]; first compound 0.02 µM) | relative viability ([3]; first compound 0.06325 µM) | relative viability ([3]; first compound 0.2 µM) | relative viability ([3]; first compound 0.6325 µM) | relative viability ([3]; first compound 2 µM) | relative viability ([4]; first compound 0.02 µM) | relative viability ([4]; first compound 0.06325 µM) | relative viability ([4]; first compound 0.2 µM) | relative viability ([4]; first compound 0.6325 µM) | relative viability ([4]; first compound 2 µM)
1 | NCI-H1437 | 0.827 | 1.04 | 0.958 | 0.953 | 1.01 | 0.603 | 0.635 | 0.626 | 0.676 | 0.618 | 0.424 | 0.496 | 0.472 | 0.47 | 0.474 | 1.01 | 1.04 | 1.02 | 1.03 | 1.08
2 | NCI-H322M | – | 0.726 | 0.769 | 0.845 | 0.656 | – | – | 0.805 | 0.845 | 0.621 | 1.25 | 1.15 | 1.26 | 1.07 | 1.17 | 1.03 | 0.864 | 0.885 | 0.826 | 0.972
3 | COR-L23 | 0.493 | 0.897 | 0.793 | 0.892 | 0.551 | 0.256 | 0.382 | 0.292 | 0.369 | 0.286 | 0.92 | 0.991 | 1.01 | 0.966 | 0.967 | 1.1 | 0.886 | 0.9 | 0.656 | 0.816
4 | NCI-H2009 | 1.15 | 1.17 | 1.05 | 1.24 | 1.09 | 0.682 | 0.694 | 0.678 | 0.643 | 0.658 | 0.299 | 0.869 | 0.808 | 0.919 | 1.15 | 1.27 | 1.17 | 1.16 | 1.14 | 1.22
5 | NCI-H1944 | – | 0.897 | 0.731 | 0.774 | 0.795 | – | 0.425 | 0.422 | 0.423 | 0.374 | – | – | – | – | – | 1.21 | 1.17 | 1.06 | 1.19 | 1.12
6 | SK-MES-1 | 0.924 | 0.946 | 0.861 | 0.76 | 0.823 | 0.788 | 0.665 | 0.676 | 0.64 | 0.598 | – | – | – | – | – | 1.05 | 1.03 | 1.06 | 0.913 | 1.09
7 | NCI-H1648 | – | – | – | – | – | 0.81 | 0.725 | 0.964 | 0.932 | 0.651 | – | – | – | – | – | – | – | – | – | –
8 | NCI-H2342 | – | – | – | – | – | 0.437 | 0.449 | 0.457 | 0.442 | 0.373 | – | – | – | – | – | – | – | – | – | –
9 | ChaGo-K-1 | – | – | – | – | – | – | 0.459 | 0.424 | 0.409 | 0.324 | – | 0.863 | 1.09 | 1.05 | 0.804 | – | – | – | – | –
10 | NCI-H358 | – | 0.941 | 0.985 | 0.919 | 0.829 | – | 0.614 | 0.59 | 0.544 | 0.49 | – | – | – | – | – | – | 0.815 | 0.775 | 0.667 | 0.772
11 | LK-2 | – | 1.11 | 0.896 | 1.13 | 0.907 | – | 0.792 | 0.787 | 0.688 | 0.722 | – | – | – | – | – | 0.689 | 0.592 | 0.476 | 0.558 | 0.548
12 | NCI-H1650 | – | – | – | – | – | 0.753 | 0.813 | 0.775 | 0.762 | 0.78 | – | 0.195 | 0.204 | 0.2 | 0.182 | – | – | – | – | –
13 | NCI-H2170 | 0.714 | 0.941 | 0.837 | 0.793 | 0.838 | 0.55 | 0.556 | 0.635 | 0.648 | 0.523 | – | – | – | – | – | – | – | – | – | –

Reference: the supplement of paper PMC10307832
